Laboratory results from BindingDB's records for PubMed 7969084 (Merck Sharp and Dohme Research Laboratories, 1994).

Target: T1, Cholecystokinin (Sus scrofa, UniProt P01356)
T1 sequence (P01356 whole entry): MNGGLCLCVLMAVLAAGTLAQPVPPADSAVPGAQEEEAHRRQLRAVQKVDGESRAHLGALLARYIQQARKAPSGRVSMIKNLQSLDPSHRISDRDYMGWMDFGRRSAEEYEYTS

- Ki: 1.2 nM
SMILES: Cc1cccc(NC(=O)N[C@@H]2N=C(N3CCCCCC3)c3ccccc3N(C)C2=O)c1 [L-738416]
